Patent publication US20100137346A1, “DESFE[…] ACTINIDE DEC[…]” (priority 2006, published 2010)
Read-outs that look alike come from different tables or passages of the source.

How the values were obtained:
[1] = cited from earlier work; for iron-clearing efficiency, in words: in both rodents and primates
[2] = bile duct-cannulated rodent model; cited from earlier work
[3] = in vivo; cited from earlier work
[4] = rats, same dose; cited from earlier work
[5] = Chelator accumulation in lung tissue; assay type: in vivo, rodents; settings: SC 300 μmol/kg, 0.5 h post drug
Description: Chelator Access to Lung Tissue. As inhalation is one of the principal routes of potential actinide contamination, in a preliminary study aimed at this proposal, the accumulation of two different DFT analogues in lung tissue, (S)-4′-(HO)-DADMDFT (9, FIG. 1) and (S)-3′,4′-(CH3O)-DADMDFT, 19, Table 2)] was investigated. Rodents were given the drugs SC at a dose of 300 μmol/kg. The latter chelator is far more lipophilic than the former. The more lipophilic chelator (19) achieved a concentration of 290±66 nmol/g wet weight 0.5 h post drug. The level of the less lipophilic ligand (9) was much lower, 80±9 nmol/g wet weight 0.5 h post drug. This is consistent with the idea that organ targeting can be achieved,[Bergeron, et al., Impact of the Lipophilicity of Desferrithiocin Analogues on Iron Clearance, Medicinal Inorganic Chemistry 2005; 366-383] corroborating previous studies and further contributing to the index of success of the invention.

[6] = cited from earlier work
[7] = Chelator-induced uranium excretion (urine + bile, 24 h) in bile duct-cannulated rat model; assay type: in vivo; settings: for % of Administered Dose Cleared: 300 μmol/kg IP Immediate
Description: Desferrithiocin Analogue Induced Excretion of Uranium. In order to compare results with previous chelator-induced iron excretion data, the uranium clearance studies were carried out in a bile duct-cannulated rat model. The animals were given uranyl acetate dihydrate SC at a dose of 5 mg/kg (the actual dose of uranium is 2.8 mg/kg). Bile and urine samples were collected for 24 hours after dosing. Kidneys were removed from selected animals and tissue uranium concentration measured. At least three animals were utilized in each experimental group. Data from two separate control studies (uranyl acetate/ no chelator) have now been combined for a total of 14 control animals. All uranium concentrations were measured using ICPMS. The data are reported as the total quantity of uranium excreted [urine +bile]; the mode of excretion [urine/bile] is also given. In addition the percentage of the administered dose of uranium cleared and chelator-induced uranium excretion vs the controls is also given. Four positive controls were evaluated: DTPA (13, Table 1) given as its trisodium calcium salt, DFO (14), N,N′-bis(2hydroxybenzyl)ethylenediamine-N,N′-diacetic acid, monosodium salt (NaHBED, 15) and the hydroxypyridone CP94 (16) shown to bind uranium [Pashalidis, et al., Effective complex formation in the interaction of 1,2-dimethyl-3-hydroxypyrid-4-one (Deferiprone or L1) with uranium(VI), Journal of Radioanalytical and Nuclear Chemistry 1999; 242:181-184.] The total metal cleared after 24 h in control rats was 10% of the administered dose. When DTPA, 13, was given IP or PO at 300 μmol/kg immediately after uranium, the excretion was 17% and 8% of the administered dose respectively (p>0.05). However, when the drug was given IP at a dose of 600 μmol/kg immediately post-metal, the uranium excretion was significant, 20% (p<0.005). This is consistent with previously published data using a similar animal model.[Domingo, et al., Comparative effects of the chelators sodium 4,5-dihydroxybenzene-1,3-disulfonate (Tiron) and diethylenetriaminepentaacetic acid (DTPA) on acute uranium nephrotoxicity in rats, Toxicology 1997; 118:49-59] DFO (14) and CP94 (16) given IP immediately post uranyl acetate were ineffective.
Desferrithiocin Analogue-Induced Excretion of Uranium. In order to compare results with previous chelator-induced iron excretion data, the uranium clearance studies were carried out in a bile duct-cannulated rat model. The animals were given uranyl acetate dihydrate SC at a dose of 5 mg/kg (the actual dose of uranium is 2.8 mg/kg). Bile and urine samples were collected for 24 hours after dosing. Kidneys were removed from selected animals and tissue uranium concentration measured. At least three animals were utilized in each experimental group. Data from two separate control studies (uranyl acetate/ no chelator) are combined for a total of 14 control animals. All uranium concentrations were measured using ICPMS. The data are reported as the total quantity of uranium excreted [urine +bile]; the mode of excretion [urine/bile] is also given. In addition the percentage of the administered dose of uranium cleared and chelator-induced uranium excretion vs the controls is also given. Four positive controls were evaluated: DTPA (1, Table 1) given as its trisodium calcium salt, DFO (2), N,N -bis(2-hydroxybenzyl)ethylenediamine-N,N-diacetic acid, monosodium salt (NaHBED, 3) and the hydroxypyridone CP94 (4) shown to bind uranium. The total metal cleared after 24 h in control rats was 10% of the administered dose. When DTPA, 1, was given IP or PO at 300 μmol/kg immediately after uranium, the excretion was 17% and 8% of the administered dose respectively (p>0.05). However, when the drug was given IP at a dose of 600 μmol/kg immediately post metal, the uranium excretion was significant, 20% (p<0.005). This is consistent with previously published data using a similar animal model.^2 DFO (2) and CP94 (4) given IP immediately post uranyl acetate were ineffective.

[8] = rodents; cited from earlier work
[9] = Iron-clearing efficiency (ICE) in iron-overloaded Cebus apella primate; assay type: in vivo; settings: orally to C. apella primates, 150 μmol/kg
Description: In the text below, “iron-clearing efficiency” (ICE) [Bergeron, et al., Effects of C-4 Stereochemistry and C-4′ Hydroxylation on the Iron Clearing Efficiency and Toxicity of Desferrithiocin Analogues, J Med Chem 1999; 42:2432-2440] is used as a measure of the amount of iron excretion induced by a chelator. The ICE, expressed as a percent, is calculated as (ligand-induced iron excretion/theoretical iron excretion)×100. To illustrate, the theoretical iron excretion after administration of one millimole of desferrioxamine (DFO, 14, Table 1), a hexadentate chelator which forms a 1:1 complex with Fe(III), is one milli-g-atom of iron. Two millimoles of desferrithiocin (DFT, 1, FIG. 1), a tridentate chelator which forms a 2:1 complex with Fe(III), are required for the theoretical excretion of one milli-g-atom of iron. In clinical practice, the actual ICE of DFO (14), used to treat people with iron overload, is only 5 to 7% [Pippard, et al., Iron Chelation Using Subcutaneous Infusions of Diethylene Triamine Penta-acetic Acid (DTPA), Scand J Haematol 1986; 36:466-472; Pippard, Desferrioxamine-Induced Iron Excretion in Humans, Bailliere's Clin Haematol 1989; 2:323-343]. […]

## C[C@]1(C(=O)O)CSC(c2ncccc2O)=N1 [Compound 1, (S)-4,5-dihydro-2-(3-hydroxy-2-pyridinyl)-4methyl-4-thiazolecarboxylic acid, reference compound]
[1]; iron-overloaded C. apella primate
  ICE: 16%
[2]
  ICE: 5.5%
[3]
  toxicity, in words: severely nephrotoxic

## O=C(O)[C@H]1CSC(c2ccc(O)cc2O)=N1 [Compound 9, (S)-2(2,4-dihydroxyphenyl)-4,5-dihydro-4-thiazolecarboxylic acid]
[4]
  outcome of planned 10-day dosing regimen: did not display any frank toxicity
[1]; C. apella model
  iron-clearing activity, in words: compatible with iron clearance
[1]; administered PO at a dose of 150 μmol/kg
  ICE: 5.3%
[5]
  concentration in lung tissue: 80±9 nmol/g wet weight

## COc1ccc(C2=N[C@@](C)(C(=O)O)CS2)c(O)c1 [Compound 12, (S)-4,5-dihydro2-(2-hydroxy-4-methoxyphenyl)4-methyl-4-thiazolecarboxylic acid]
[6]; in vivo
  metabolite formed by metabolic O-demethylation: (S)-4′-(HO)-DADFT (10)
[1]
  iron-clearing efficiency, in words: excellent iron-clearing efficiency
[7]
  % of Administered Dose Cleared: 20%
[7]; IP 300 μmol/kg, given 0.5 h post metal
  uranium excretion, in words: within error of control
[3]
  toxicity, in words: too toxic for clinical consideration

## COCCOCCOCCOc1ccc(C2=N[C@@](C)(C(=O)O)CS2)c(O)c1 [Compound 18, (S)-4,5-dihydro-2-[2-hydroxy-4-(3,6,9-trioxadecyloxy)phenyl]-4methyl-4-thiazolecarboxylic acid]
[6]; rodents
  kidney concentration versus 10: significantly lower concentrations in the kidney
  liver concentration versus 10: higher concentrations in the liver
[1]
  iron-clearing efficiency, in words: highly efficient iron chelator
[7]
  % of Administered Dose Cleared: 22%
[8]
  tolerability versus 10: more tolerable

## COc1ccc(C2=N[C@@H](C(=O)O)CS2)c(O)c1OC [Compound 19, (S)-4,5-dihydro-2(3,4-dimethoxy-2-hydroxyphenyl)-4-thiazolecarboxylic acid]
[5]
  concentration in lung tissue: 290±66 nmol/g wet weight

## COc1ccc(C2=N[C@@H](C(=O)O)CS2)c(O)c1OC [drawing 26]
[9]
  Iron Clearing Efficiency (%): 12.4 ± 6.2%
[9]; [stool/urine]
  relative percentages of the iron excreted in the stool and urine: 94/6
